Measurements as given in PubChem BioAssay AID179 (DTP/NCI, 2004).
Active and inactive are the calls of the source.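 The calls were made as follows: active = compounds giving half or more protection of infected cells from virus-caused growth loss, again on retest; inactive = the rest.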

System: CEM cells HIV-1 protection, formazan growth assay
Test: NCI AIDS Antiviral Assay
Settings: for IC50: measured here: growth of uninfected CEM cells
Method in brief: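 Human CEM cells, uninfected and HIV-1-infected, exposed to five drug concentrations; growth measured by soluble formazan assay and scored as percent protection from infection, with protecting compounds retested.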

Structure (SMILES)	EC50 [µM]	IC50 [µM]	outcome
CN1CN(C)N(C(=O)c2ccccc2)CN1C(=O)c1ccccc1	> 200	97.7	
COc1cc2c(cc1OC)C1Cc3sccc3CN1CC2 (centres undefined)			inactive
Nc1nc(OCc2ccccc2)c2[nH]cnc2n1	> 200	32.4	
Clc1cc2nsnc2c(Cl)n1	> 457	2.75	
Nc1ccc(C(=Nc2ccccc2)c2ccc(N)cc2)cc1			inactive
CN(C)C[C@H]1CC[C@@H](CN(C)C)C1=O			inactive
NNC(=S)NC1CC(c2ccccc2)Oc2ccccc21 (centres undefined)			inactive
C#CC(C)(C)OCCCCOc1cc(O)c2c(=O)c3ccccc3n(C)c2c1	> 3.8	> 3.8	
Cc1ccc2cc(NC(=O)CN)c3ccc(C)nc3c2n1.Cc1ccc2cc(NC(=O)CN)c3ccc(C)nc3c2n1.O=C1OC(C(O)C[O-])C(O)=C1O.[Cu+]	> 12.6	0.562	
O=C(O)CSC1=NNC2(C(=O)N1)c1ccccc1-c1ccccc12	> 200	58.9	
Nc1ncnc2c1S(=O)(=O)NCN2	> 178	> 178	
c1ccc(CSCSCc2ccccc2)cc1			inactive
CC(=O)CC(C)=O.CC(=O)CC(C)=O.CC(=O)CC(C)=O.CC(=O)CC(C)=O.[Zr]			inactive
O=C(O)C(=O)CC(=O)c1ccc(Cl)cc1	> 200	> 200	
O=[N+]([O-])c1cc(-c2nnc(C34CC5CC(CC(C5)C3)C4)o2)cc([N+](=O)[O-])c1	> 200	> 200	
CCOC(=O)N1CCc2cc(OC)c(OC)cc2/C1=C\c1ccc(OC)c(OC)c1			inactive
CCCCCCCCNC(=S)/N=C/c1c(O)c2ccccc2oc1=O	> 200	38.9	
CN1CCN(c2cc3nc(-c4ccc(Cl)cc4)[nH]c3cc2F)CC1	> 200	11.5	
COc1ccccc1C1SCC(=O)N1c1ccc(-n2c(-c3ccccc3)nc3ccccc3c2=O)cc1 (centres undefined)	> 200	135	

Structure (SMILES)	EC50 [µM]	IC50 [µM]	outcome
Oc1cc(Cl)cc2cccnc12			inactive
O=[N+]([O-])C(/C=N/Nc1ccccc1)/C=N/Nc1ccccc1	> 24.5	> 24.5	
CN(C)C=Nc1c(Br)cc(Br)c2nonc12	> 200	> 200	
Cc1ncc([N+](=O)[O-])n1CC(O)Cn1cnc([N+](=O)[O-])n1 (centres undefined)	> 200	> 200	
COc1cc([N+](=O)[O-])ccc1NC(=O)Nc1cc(C)ccn1	> 200	> 200	
COc1ccc(-n2nnnc2C2(Nc3ccccc3)CCN(Cc3ccccc3)CC2)cc1	> 200	> 200	
Cc1nnc2n1N=C(c1ccc(-c3ccc([N+](=O)[O-])cc3)o1)CS2	> 5.89	> 5.89	
CCCCCCN(N)C(=O)CC#N	> 39.8	> 39.8	
O=C(O)c1ccccc1-c1c2ccc(=O)cc-2oc2cc(O)ccc12	> 316	58.9	
CC(=O)C(N=Nc1ccc(S(=O)(=O)Nc2ccccn2)cc1)C(=O)Nc1ccccc1C (centres undefined)	> 200	4.57	
Cc1cc(NS(=O)(=O)c2ccc(NC(=O)c3ccc(Cl)c4c(Nc5ccc(S(=O)(=O)N=C(N)N)cc5)c5ccccc5nc34)cc2)no1	> 51.3	> 51.3	
CC(=O)OC1CCN(C)CC1CCl (centres undefined)	> 200	> 200	
O=C(COc1cc(=O)oc2ccccc12)c1ccccc1	> 200	151	
COC(=O)C1=COC(C)C2CN3CCc4c([nH]c5cc(OC)ccc45)C3CC12 (centres undefined)	> 46.8	> 46.8	
COc1cc(O)c(C(=O)/C=C/c2ccc(OC)c(OCc3ccccc3)c2)c(OC)c1			inactive
CCCN(CCCC(NC(C)=O)C(=O)NCc1ccccc1)C(=O)N(C)N=O (centres undefined)	> 174	> 174	
CCOc1ccc(Nc2nc(C)c(C(=O)CC(=O)C(=O)Nc3ccc(Cl)c(C(F)(F)F)c3)s2)cc1	> 200	> 200	
Nc1ccc(CCN2CCN(c3cccc(C(F)(F)F)c3)CC2)cc1			inactive
